Series [1] addresses T1, hmGlu5 (Homo sapiens, UniProt P41594).
T1 construct: expressed in transfected cells; host or cells: HEK 293A
Briefly: mGlu5 Ca2+ flux assay in HEK 293A cells (negative allosteric modulation of glutamate EC80 response). Format: cell-based. In short, it runs like this: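 HEK 293A cells stably expressing rat or human mGlu5, Fluo-4 AM loaded; compound added 2.3 min before glutamate EC20, then EC80; Ca2+ fluorescence peak amplitudes (F/F0) normalised to glutamate max. IC50 from 4-parameter logistic fit, 10-point 1:3 curves, top 30 μM; partial NAMs plateau above 10% Glu Max.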

The subject of series [2] is N-methyl-D-aspartate (NMDA) receptor. The note with it: at higher concentrations; cited from earlier work.
The target in series [3] is mGlu4 (Homo sapiens, UniProt Q14833). To be noted: cited from earlier work.
Chain of mGlu4 (Q14833 33-912): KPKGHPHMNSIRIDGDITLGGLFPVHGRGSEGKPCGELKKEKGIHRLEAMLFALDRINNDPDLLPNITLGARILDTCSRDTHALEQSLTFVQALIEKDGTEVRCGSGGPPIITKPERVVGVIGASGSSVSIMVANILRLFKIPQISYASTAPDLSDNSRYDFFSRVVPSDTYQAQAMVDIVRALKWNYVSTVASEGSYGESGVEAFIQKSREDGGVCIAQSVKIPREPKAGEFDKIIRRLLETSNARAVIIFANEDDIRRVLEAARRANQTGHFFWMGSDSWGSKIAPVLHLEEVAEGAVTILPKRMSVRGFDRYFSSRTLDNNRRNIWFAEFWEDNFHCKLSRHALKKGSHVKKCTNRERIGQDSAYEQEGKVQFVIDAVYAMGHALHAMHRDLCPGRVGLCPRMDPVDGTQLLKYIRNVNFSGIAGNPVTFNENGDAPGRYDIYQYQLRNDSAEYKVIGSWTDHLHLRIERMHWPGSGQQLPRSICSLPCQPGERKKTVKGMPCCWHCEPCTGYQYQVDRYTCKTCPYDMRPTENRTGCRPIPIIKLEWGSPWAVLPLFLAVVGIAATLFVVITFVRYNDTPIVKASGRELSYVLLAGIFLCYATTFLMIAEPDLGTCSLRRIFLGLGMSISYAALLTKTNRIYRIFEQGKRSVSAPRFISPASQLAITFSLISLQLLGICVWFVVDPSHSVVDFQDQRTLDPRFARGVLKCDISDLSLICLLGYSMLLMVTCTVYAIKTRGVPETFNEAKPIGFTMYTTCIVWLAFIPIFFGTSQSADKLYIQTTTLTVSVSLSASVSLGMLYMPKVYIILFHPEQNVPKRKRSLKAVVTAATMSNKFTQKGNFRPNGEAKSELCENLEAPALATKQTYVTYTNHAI
Series [4] concerns the target T2, cytochrome P450 1A2 (Homo sapiens, UniProt P05177).
T2 sequence (P05177 1-516): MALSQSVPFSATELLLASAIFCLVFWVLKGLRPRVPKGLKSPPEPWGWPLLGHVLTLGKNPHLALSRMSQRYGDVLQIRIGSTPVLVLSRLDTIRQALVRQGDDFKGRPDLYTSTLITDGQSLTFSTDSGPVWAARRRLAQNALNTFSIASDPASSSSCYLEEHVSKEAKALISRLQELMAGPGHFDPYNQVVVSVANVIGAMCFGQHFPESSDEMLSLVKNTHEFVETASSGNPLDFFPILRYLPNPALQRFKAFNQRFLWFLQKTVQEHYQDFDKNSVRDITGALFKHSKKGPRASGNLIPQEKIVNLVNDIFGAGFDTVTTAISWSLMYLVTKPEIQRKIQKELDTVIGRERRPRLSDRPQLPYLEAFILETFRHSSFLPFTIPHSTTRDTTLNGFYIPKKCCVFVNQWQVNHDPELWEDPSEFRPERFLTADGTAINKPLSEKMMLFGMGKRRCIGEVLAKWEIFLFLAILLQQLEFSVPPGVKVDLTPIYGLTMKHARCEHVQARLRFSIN
To be noted: cited from earlier work.

The conditions of series [5]: intravenous administration, rhesus monkeys; cited from earlier work.

Structures are written as SMILES.

T1 sequence (P41594 21-1212): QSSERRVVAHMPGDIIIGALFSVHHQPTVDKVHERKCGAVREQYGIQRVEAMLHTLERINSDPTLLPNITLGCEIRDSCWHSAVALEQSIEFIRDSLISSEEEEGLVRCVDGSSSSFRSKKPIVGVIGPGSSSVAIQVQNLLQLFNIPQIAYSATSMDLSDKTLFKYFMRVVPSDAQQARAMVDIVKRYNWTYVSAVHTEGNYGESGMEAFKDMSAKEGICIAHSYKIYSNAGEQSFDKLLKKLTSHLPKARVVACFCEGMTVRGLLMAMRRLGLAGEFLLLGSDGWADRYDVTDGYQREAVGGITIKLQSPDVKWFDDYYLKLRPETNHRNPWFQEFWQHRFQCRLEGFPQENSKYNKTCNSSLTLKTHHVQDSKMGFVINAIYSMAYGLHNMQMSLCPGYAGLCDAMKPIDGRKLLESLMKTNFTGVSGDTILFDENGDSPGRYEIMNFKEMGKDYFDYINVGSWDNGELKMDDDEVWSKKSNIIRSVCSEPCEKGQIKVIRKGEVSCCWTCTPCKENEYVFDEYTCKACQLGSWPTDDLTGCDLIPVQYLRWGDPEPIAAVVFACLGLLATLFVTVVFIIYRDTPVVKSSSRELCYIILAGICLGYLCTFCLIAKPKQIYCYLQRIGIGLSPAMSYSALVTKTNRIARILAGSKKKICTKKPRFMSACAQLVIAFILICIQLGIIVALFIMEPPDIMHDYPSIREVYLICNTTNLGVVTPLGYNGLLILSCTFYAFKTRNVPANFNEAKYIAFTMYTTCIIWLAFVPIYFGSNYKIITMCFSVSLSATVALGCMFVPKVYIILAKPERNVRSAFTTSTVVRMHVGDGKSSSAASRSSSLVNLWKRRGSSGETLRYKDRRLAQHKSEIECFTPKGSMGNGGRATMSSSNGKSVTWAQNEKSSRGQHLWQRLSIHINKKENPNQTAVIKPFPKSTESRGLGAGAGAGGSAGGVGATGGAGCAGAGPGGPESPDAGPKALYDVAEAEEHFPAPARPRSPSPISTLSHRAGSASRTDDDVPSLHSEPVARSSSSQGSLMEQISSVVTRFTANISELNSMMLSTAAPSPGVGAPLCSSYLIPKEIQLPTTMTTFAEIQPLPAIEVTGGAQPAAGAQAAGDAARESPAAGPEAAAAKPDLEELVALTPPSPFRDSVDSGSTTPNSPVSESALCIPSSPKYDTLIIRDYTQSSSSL

On to `Cc1cc(O[C@@H]2CCOC2)cc(-c2noc(-c3ccccn3)n2)n1` [Compound 113, (R)-3-(6-methyl-4-((tetrahydrofuran-3-yl)oxy)pyridin-2-yl)-5-(pyridin-2-yl)-1,2,4-oxadiazole], for which, in series [1] (HEK293-A, % Glu max at 30 μM, read-out: hmGlu5 NAM Emin (%)), the remaining activity at 30 µM was 2%. In series [1] (HEK 293A cells, Ca2+ flux, glutamate EC80, >10,000 = decrease without plateau, read-out: hmGlu5 NAM IC50), the IC50 was determined as 46 nM.

As to `Cc1cccc(C#Cc2ccccc2)n1` [MPEP, 2-methyl-6-(phenylethynyl) pyridine], the “inhibition of NMDA receptor activity” value in series [2] was “directly inhibit”. For the same compound, the “modulation of mGlu4” value in series [3] was “positive allosteric modulator”.

Take `Cc1nc(C#Cc2cccnc2)cs1` [MTEP, 3-[(2-methyl-1,3-thiazol-4-yl)ethynyl]pyridine]: the “inhibition of cytochrome P450 1A2” value in series [4] is on record as “potent inhibitor”. Further, in series [5], the clearance result is recorded as “efficiently cleared”.

As a reminder, the IC50 is the concentration that inhibits the measured activity by half.

(Values after patent US20250026743A1, “HETEROARYL-LINKED ANALOGS AS MGLU5 NEGATIVE ALLOSTERIC MODULATORS AND METHODS OF MAKING AND USING THE SAME” (Vanderbilt University, priority 2021, published 2025).)
